This passage reports IC50, EC50 and AC50 results from ChEMBL document CHEMBL1201862, “PubChem BioAssay data set” (2004).

Each structure is given as a SMILES string. Active and inactive are the calls of the source. Where only a bound is given, the exact number is not on record here.

In one experiment the target is Large T antigen (Simian virus 40, UniProt P03070). It counts as functional, Betapolyomavirus macacae.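 Note: Confirmatory-stage PubChem screen for compounds that inhibit SV40 T antigen.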
Experiment [1] can be described thus: growth suppression of PTEN-null colon cells, dose response, cell-based, HCT116 PTEN knockout (AID 1047).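 Note: HCT116 colon tumor cells with PTEN knocked out; cells exposed to compound for 60 hours before readout; potency for loss of cell viability measured by luminescence.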 The class given is functional.
A short description of experiment [2]: growth suppression of beta-catenin-knockout colon cells, dose response, cell-based, HCT116, human colon tumor (AID 1045).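 Note: HCT116 colon tumor cells with beta catenin knocked out; cells exposed to compound for 60 hours.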 It counts as functional.
Experiment [3] has as its target T1, DNA repair protein RAD52 homolog (Homo sapiens, UniProt P43351).
T1 sequence (P43351 whole entry): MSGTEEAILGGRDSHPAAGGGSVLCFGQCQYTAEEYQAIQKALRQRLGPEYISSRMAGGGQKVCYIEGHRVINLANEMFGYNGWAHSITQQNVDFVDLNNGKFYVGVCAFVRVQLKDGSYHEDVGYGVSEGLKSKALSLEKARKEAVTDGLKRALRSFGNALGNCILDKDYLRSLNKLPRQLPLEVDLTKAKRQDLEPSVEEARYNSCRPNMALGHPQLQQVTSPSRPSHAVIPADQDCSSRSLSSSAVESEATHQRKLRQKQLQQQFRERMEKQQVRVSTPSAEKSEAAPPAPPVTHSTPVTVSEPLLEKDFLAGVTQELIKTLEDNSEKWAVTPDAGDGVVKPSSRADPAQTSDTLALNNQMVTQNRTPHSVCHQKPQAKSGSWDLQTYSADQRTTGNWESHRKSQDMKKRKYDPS
It counts as functional, biochemical.

Experiment [4] addresses T2, Corticotropin-releasing factor receptor 2/Corticotropin-releasing factor-binding protein (Homo sapiens, UniProt P24387+Q13324).
T2 sequence (Q13324 whole entry): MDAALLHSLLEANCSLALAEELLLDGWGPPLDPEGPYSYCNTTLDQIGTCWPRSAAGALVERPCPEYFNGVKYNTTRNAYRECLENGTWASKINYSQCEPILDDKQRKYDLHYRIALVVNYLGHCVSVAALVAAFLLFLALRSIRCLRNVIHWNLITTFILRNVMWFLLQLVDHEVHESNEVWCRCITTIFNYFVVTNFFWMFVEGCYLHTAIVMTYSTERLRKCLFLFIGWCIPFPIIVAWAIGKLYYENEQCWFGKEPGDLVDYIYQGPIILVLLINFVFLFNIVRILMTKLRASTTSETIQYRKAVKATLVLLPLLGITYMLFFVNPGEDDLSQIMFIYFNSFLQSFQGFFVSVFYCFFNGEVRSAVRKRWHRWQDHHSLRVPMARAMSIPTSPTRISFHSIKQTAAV
T2 sequence (P24387 whole entry): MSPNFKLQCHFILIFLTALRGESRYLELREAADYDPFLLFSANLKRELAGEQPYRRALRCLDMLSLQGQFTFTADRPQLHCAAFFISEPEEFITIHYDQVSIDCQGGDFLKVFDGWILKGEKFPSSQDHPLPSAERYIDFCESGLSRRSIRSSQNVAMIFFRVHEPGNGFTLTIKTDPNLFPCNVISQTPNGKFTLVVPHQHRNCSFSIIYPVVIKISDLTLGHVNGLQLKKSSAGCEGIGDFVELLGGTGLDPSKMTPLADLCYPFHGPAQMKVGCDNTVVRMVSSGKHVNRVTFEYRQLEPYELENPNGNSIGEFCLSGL
The experiment can be described thus: Dose Response confirmation of uHTS hits for small molecule antagonists of the CRF-binding protein and CRF-R2 receptor complex. The class given is functional. To be noted: read-out: IC50_Mean.

Experiment [5] concerns the target T2, Corticotropin-releasing factor receptor 2/Corticotropin-releasing factor-binding protein. Description: activators of CRF receptor 2 with binding protein – uHTS hits, confirmation (AID 602473). To be noted: read-out: EC50_Mean. It counts as functional.
For experiment [6], the target named is T3, Heat shock factor protein 1 (Mus musculus, UniProt P38532).
T3 sequence (P38532 whole entry): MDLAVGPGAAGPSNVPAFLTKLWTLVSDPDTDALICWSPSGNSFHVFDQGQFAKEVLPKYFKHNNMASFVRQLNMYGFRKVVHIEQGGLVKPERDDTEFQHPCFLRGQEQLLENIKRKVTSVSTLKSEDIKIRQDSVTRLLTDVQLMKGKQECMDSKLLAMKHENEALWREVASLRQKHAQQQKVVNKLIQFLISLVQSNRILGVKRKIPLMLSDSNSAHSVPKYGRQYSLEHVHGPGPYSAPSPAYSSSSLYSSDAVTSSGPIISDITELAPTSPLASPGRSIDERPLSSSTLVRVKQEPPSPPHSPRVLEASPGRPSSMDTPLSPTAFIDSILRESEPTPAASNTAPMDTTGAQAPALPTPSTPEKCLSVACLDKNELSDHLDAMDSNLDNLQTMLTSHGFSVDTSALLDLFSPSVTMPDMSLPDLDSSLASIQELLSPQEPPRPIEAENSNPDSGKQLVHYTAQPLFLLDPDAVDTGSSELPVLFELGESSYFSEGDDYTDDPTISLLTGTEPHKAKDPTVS
The experiment can be described thus: inhibition of MG132-induced HSE-luciferase signal, confirmation, cell-based, NIH3T3, luminescence, dose retest (AID 2382).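 Note: NIH3T3 fibroblasts with HSF1-driven luciferase reporter stressed by proteasome inhibitor MG132; luminescence from HSF1-driven luciferase expression after 8 hours of MG132 stress.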 It counts as functional.

A short description of experiment [7]: LGR2 antagonists, dose response, cell-based, HEK293, CRE-luciferase reporter, cherry pick, set 2 (AID 743343).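 Note: transfected cells were stimulated with diluted bursicon conditioned medium after compound addition.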 It counts as functional. (In general: A reporter such as luciferase makes a cellular process visible.)
Experiment [8] in a line: MC4R antagonists, dose response, counter-screen for LGR2 antagonist project, cell-based, plate reader, cherry pick (AID 743444).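 Note: transfected HEK 293 cells stimulated with alpha-MSH peptide; potency of inhibitors of the alpha-MSH evoked signal.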 It counts as functional.
Experiment [9] addresses Glyceraldehyde-3-phosphate dehydrogenase (Homo sapiens, UniProt P04406).
The target in experiment [10] is FAD-linked sulfhydryl oxidase ALR (Homo sapiens, UniProt P55789). The experiment can be described thus: inhibitors of human ALR sulfhydryl oxidase, dose response, biochemical, H2O2 detection, luminescence, cherry-pick (AID 493248).
Chain of FAD-linked sulfhydryl oxidase ALR (P55789 whole entry): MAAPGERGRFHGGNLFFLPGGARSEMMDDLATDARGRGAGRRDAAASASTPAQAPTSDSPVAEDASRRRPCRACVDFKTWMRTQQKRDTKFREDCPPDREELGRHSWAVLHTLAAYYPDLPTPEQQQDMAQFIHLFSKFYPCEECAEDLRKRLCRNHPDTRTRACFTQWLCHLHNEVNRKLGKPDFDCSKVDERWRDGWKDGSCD

Chain of Large T antigen (P03070 whole entry): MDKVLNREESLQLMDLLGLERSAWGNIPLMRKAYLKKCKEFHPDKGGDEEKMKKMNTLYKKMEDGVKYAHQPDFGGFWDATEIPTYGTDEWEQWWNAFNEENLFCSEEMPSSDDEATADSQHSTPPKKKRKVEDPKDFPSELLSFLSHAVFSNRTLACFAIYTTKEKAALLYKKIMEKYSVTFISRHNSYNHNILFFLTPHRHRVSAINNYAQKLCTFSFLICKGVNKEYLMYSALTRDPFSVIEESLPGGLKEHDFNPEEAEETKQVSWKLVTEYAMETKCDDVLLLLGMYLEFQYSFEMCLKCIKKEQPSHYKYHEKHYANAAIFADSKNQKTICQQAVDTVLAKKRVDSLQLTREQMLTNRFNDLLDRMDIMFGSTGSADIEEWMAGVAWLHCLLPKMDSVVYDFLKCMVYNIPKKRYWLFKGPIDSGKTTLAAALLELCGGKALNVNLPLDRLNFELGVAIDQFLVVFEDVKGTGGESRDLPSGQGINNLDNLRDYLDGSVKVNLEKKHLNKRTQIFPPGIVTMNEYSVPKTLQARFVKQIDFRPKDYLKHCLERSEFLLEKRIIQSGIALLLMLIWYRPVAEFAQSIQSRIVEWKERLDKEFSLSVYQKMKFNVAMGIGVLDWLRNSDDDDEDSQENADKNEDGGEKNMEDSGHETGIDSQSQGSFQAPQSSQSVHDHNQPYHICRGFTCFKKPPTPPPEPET
Chain of Glyceraldehyde-3-phosphate dehydrogenase (P04406 whole entry): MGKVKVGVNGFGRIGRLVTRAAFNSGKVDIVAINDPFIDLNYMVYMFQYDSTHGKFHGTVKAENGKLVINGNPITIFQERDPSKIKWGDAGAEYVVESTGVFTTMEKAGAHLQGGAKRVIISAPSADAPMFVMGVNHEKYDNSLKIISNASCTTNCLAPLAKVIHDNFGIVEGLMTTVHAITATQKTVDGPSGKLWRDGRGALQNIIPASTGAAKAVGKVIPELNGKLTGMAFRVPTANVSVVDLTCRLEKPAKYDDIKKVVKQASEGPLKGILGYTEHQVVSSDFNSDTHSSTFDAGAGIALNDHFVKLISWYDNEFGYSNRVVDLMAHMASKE

For `COc1cccc(/C=N/c2ccc(N3CCOCC3)cc2)c1O`, at Large T antigen, the IC50 was 4.14 µM (active).

The AC50 is the concentration giving half of the maximal activity seen. `CN(C)CCN(C)Cc1ccccc1Sc1cccc2ccccc12`: the EC50 in [1] was 12.8 µM (active); in experiment [2] it was 10.6 µM (active). For the same molecule, in [3], the AC50 is 11.2 µM (active).

For `COc1ccc(N=C(S)NC23CN4CN(CN(C4)C2)C3)c(OC)c1`, in experiment [3], the AC50 was 16.3 µM (active).

For the molecule `CN(C)c1ccc(NC(=O)COC(=O)Cn2nnc3ccccc32)cc1`, the IC50 at Large T antigen is 6.63 µM (active); in [4] it was > 47.1 µM (inactive). For the same molecule, the EC50 in experiment [5] was > 53 µM (inactive).

On to `N#Cc1cc2cc3c(cc2nc1NCCNC(=S)NCCCN1CCOCC1)OCO3`, for which the AC50 in [3] was 14.1 µM (active).

With `CC(C)(C)c1ccc(C(=O)NCCOc2ccccc2F)cc1`, the EC50 in experiment [6] was < 0.16 µM (active). Moreover, the AC50 in experiment [7] was 5.41 µM (active); in experiment [8] it was 4.25 µM (active).

With `O=C(c1cc(-c2ccc(Cl)cc2Cl)n[nH]1)N(CCO)CCO`, the IC50 in [9] was > 10 µM (inconclusive).

Regarding `COc1ccc(N)cc1NC(=O)CN1CCCC1`, the results for the AC50 in experiment [10] and in [3] were 7.58 µM (active) and 9.95 µM (active), respectively.

Regarding `O=C(c1cc(-c2ccc(Cl)cc2Cl)on1)N1CCCC1`, the figures for the AC50 in [7] and in experiment [8] were 5.36 µM (active) and 5.47 µM (active), respectively.
